Results as given in patent US4672066A, “Derivatives of 4-acetyl-3-hydroxy-2-alkyl-phenoxycarboxylic acids” (Hoffmann-La Roche Inc., priority 1985, dated 1987).
pIC50: −log10 of the molar value. Where two headings read alike, the source gives them in different places.

Experiments:
PAF = target: T1, PAF (Canis lupus familiaris, UniProt A0A8I3NSH0); assay: PAF Radioreceptor Binding Assay; settings: dog platelets, 3H-PAF
T1 construct: followed by 2×10^7 dog platelets; from tissue; host or cells: washed platelets from citrate-treated dog blood
T1 sequence (A0A8I3NSH0 1-343): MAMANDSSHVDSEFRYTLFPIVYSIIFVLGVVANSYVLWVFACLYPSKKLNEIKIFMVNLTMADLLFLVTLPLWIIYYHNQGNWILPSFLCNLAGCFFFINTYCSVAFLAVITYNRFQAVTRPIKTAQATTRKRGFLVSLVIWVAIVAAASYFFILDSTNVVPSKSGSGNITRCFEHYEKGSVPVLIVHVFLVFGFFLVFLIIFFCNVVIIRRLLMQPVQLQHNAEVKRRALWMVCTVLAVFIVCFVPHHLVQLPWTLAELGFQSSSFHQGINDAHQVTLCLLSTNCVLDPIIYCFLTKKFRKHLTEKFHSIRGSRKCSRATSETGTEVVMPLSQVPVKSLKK
Method: Platelet rich plasma is prepared by centrifugation of citrate-treated dog blood. Acidification to pH 6.5 with 0.15 M citric acid and centrifugation for 10 minutes at 1000 xg yields a platelet pellet which is then washed by resuspension in EDTA-Phosphate Buffered Saline (PBS) and recentrifuged. The washed platelet preparation is adjusted to 2×10^7 platelets/50 μl in 0.1% BSA-PBS. […] After mixing, incubating for 10 minutes at room temperature, and centrifuging for 1 minute in a Beckman Microfuge B (8000 xg), the pellet is removed by clipping off the tip of the tube, the platelets are solubilized with 200 μl of 50% methanol, and counted in 10 ml of Aquasol. […] Results obtained with representative compounds of the present invention in this assay are summarized hereinafter in Tables I, II and III.

TXA2 synthase = target: T2, TXA2 synthase (Homo sapiens, UniProt P24557); assay: Thromboxane Synthase Inhibition, In Vitro; assay type: biochemical; settings: at 1 μM (value in parentheses), human platelet microsomes
T2 construct: microsomal fractions from human platelets as enzyme source; from tissue; host or cells: microsomal fraction of human platelets
T2 sequence (P24557 1-533): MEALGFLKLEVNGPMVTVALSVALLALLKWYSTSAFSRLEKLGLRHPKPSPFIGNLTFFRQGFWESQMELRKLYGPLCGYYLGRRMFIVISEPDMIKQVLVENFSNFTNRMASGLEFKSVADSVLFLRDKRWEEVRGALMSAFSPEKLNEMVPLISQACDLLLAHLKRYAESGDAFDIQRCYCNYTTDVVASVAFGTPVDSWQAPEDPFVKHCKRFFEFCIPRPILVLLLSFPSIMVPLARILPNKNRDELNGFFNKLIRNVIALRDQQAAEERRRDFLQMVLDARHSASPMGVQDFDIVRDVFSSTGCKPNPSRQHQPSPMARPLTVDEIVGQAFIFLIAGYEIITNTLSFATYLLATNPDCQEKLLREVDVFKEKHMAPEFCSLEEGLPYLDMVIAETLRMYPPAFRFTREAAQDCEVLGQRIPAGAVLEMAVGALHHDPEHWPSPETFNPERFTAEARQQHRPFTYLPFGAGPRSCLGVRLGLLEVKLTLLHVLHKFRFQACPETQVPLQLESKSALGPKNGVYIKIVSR
Method: TXA2 synthase activity is measured by following the conversion of ^14 C-prostaglandin endoperoxide (PGH2) to ^14 C-thromboxane A2 (TXA2) using microsomal fractions from human platelets as enzyme source. In the aqueous incubation medium, the TXA2 decomposes rapidly into TXB2. The amount of TXA2 synthase is adjusted so that under the conditions of the assay approximately 80-90% of the substrate, PGH2, is converted to product in control tubes. To prepare ^14 C-PGH2, ^14 C-AA (50-60 mCi/mmole; Rose Chem.) is incubated with sheep seminal vesicular gland microsomes for 1.5 minutes at 37° C. and then the ^14 C-PGH2 is extracted with diethylether, purified on columns of Sephadex LH-20 or silicic acid, and stored in acetone at -70° C. Incubations are done as follows. Sufficient ^14 C-PGH2 yield a final substrate concentration of 10 μM (~30,000 cpm) is added to the incubation tubes and then the acetone is removed under nitrogen. […] The tubes are incubated at 22° C. for 2 minutes, the reaction is stopped and then the radioactive products and the unconverted PGH2 are extracted and analyzed by thin layer chromatography. […] The amount of ^14 C-PGH2 converted to products was used as a measure of TXA2 synthase activity. Inhibitors were tested initially at a final concentration of 100 μM. Results obtained with representative compounds of the present invention in this assay are summarized hereafter in Table I, II and III.

LTD4 = assay: Leukotriene D4 (LTD4) Induced Arrhythmia Test; assay type: in vivo, guinea pig (Hartley); settings: 10 mg/kg i.v. 5 min. before LTD4; conscious guinea pigs
Method: Male Hartley guinea pigs are anesthetized with sodium pentobarbital and prepared for monitoring direct blood pressure and injecting drugs intravenously by catheterizing the right carotid artery and right jugular vein. Blood pressure, heart rate, and Lead II ECG are monitored in the conscious animal 24 hours later.
Intravenous administration of LTD4 (2.5 pg/kg) is associated with an increase in blood pressure lasting approximately 1-2 minutes followed by a decrease lasting approximately 5-15 minutes (FIG. 3). Abnormal beats consisting of premature ventricular contractions, ST elevation or depression, atrioventricular conduction block, or dissociated p waves begin during the rise in blood pressure; the peak effect occurs approximately 40 seconds after LTD4. The percent of abnormal beats was quantitated by determining the number present during the first 2 minutes after injection and calculating the percent increase above the control level. During the hypotensive response, the animal usually collapses during the 2nd or 3rd minute after LTD4.

[1] = Table II, read-out: TXA2 Synth. Inhib. % at (1μM)
[2] = Table I, read-out: TXA2 Syn. Inhib. (1μM)
[3] = Table III, read-out: TXA2 Synth. Inhib. % at (1 μM)

## CCCc1c(OCCCCCC(=O)NCCCCn2ccnc2)ccc(C(C)=O)c1O
PAF; Table II
  pIC50: 6.00
TXA2 synthase; [1]
  inhibition at 1 µM: 87%

## CCCc1c(OCCCCCC(=O)NCCCCc2ccccn2)ccc(C(C)=O)c1O
PAF; Table II
  pIC50: 6.00
TXA2 synthase; [1]
  inhibition at 1 µM: 0%

## CCCc1c(OCCCCCC(=O)NCCCCOc2cccnc2)ccc(C(C)=O)c1O
PAF; Table II
  pIC50: 6.00
TXA2 synthase; [1]
  inhibition at 1 µM: 93%

## CCCc1c(OCCCCCC(=O)NCCc2ccncc2)ccc(C(C)=O)c1O
PAF; Table II
  pIC50: 5.76
TXA2 synthase; [1]
  inhibition at 1 µM: 0%

## CCCc1c(OCCCCC(=O)NCCCCc2cccnc2)ccc(C(C)=O)c1O [Example 1]
PAF; Table I
  pIC50: 6.00

## CCCc1c(OCCCCCCCC(=O)NCCCCc2cccnc2)ccc(C(C)=O)c1O [Example 2, 8-(4-Acetyl-3-hydroxy-2-propylphenoxy)-N-[4-(3-pyridinyl)butyl]octanamide]
PAF; Table I
  pIC50: 6.00

## CCCc1c(OCCCCCCC(=O)NCCCCc2cccnc2)ccc(C(C)=O)c1O [Example 3, 7-(4-Acetyl-3-hydroxy-2-propylphenoxy)-N-[4-(3-pyridinyl)butyl]heptanamide]
PAF; Table I
  pIC50: 6.00
TXA2 synthase; [2]
  inhibition at 1 µM: 93%

## CCCc1c(OCCC(=O)NCCCCc2cccnc2)ccc(C(C)=O)c1O [Example 6, 3-(4-Acetyl-3-hydroxy-2-propylphenoxy)-N-[4-(3-pyridinyl)butyl]propanamide]
PAF; Table I
  pIC50: 6.00
TXA2 synthase; [2]
  inhibition at 1 µM: 77%

## CCCc1c(OCC(=O)NCCCCc2cccnc2)ccc(C(C)=O)c1O [Example 7, (4-Acetyl-3-hydroxy-2-propylphenoxy)-N-[4-(3-pyridinyl)butyl]acetamide]
PAF; Table I
  pIC50: 5.82
TXA2 synthase; [2]
  inhibition at 1 µM: 81%

## CCCc1c(OCCCCCC(=O)NCCCCCCc2cccnc2)ccc(C(C)=O)c1O [Example 8, 6-(4-Acetyl-3-hydroxy-2-propylphenoxy)-N-[6-(3-pyridinyl)hexyl]hexanamide]
PAF; Table I
  pIC50: 6.00
TXA2 synthase; [2]
  inhibition at 1 µM: 90%

## CCCc1c(OCCCCCC(=O)NCCCc2cccnc2)ccc(C(C)=O)c1O [Example 9, 6-(4-Acetyl-3-hydroxy-2-propylphenoxy)-N-[3-(3-pyridinyl)propyl]hexanamide]
PAF; Table I
  pIC50: 5.70
TXA2 synthase; [2]
  inhibition at 1 µM: 78%

## CCCc1c(OCCCCCC(=O)NCCc2cccnc2)ccc(C(C)=O)c1O [Example 10, 6-(4-Acetyl-3-hydroxy-2-propylphenoxy)-N-[2-(3-pyridinyl)ethyl]hexanamide]
PAF; Table I
  pIC50: 6.30
TXA2 synthase; [2]
  inhibition at 1 µM: 35%

## CCCc1c(OCCCC(=O)NCCCCCCc2cccnc2)ccc(C(C)=O)c1O [Example 11, 4-(4-Acetyl-3-hydroxy-2-propylphenoxy)-N-[6-(3-pyridinyl)hexyl]butanamide]
PAF; Table I
  pIC50: 6.00
TXA2 synthase; [2]
  inhibition at 1 µM: 83%

## CCCc1c(OCCCC(=O)NCCCc2cccnc2)ccc(C(C)=O)c1O [Example 12, 4-(4-Acetyl-3-hydroxy-2-propylphenoxy)-N-[3-(3-pyridinyl)propyl]butanamide]
PAF; Table I
  pIC50: 5.82
TXA2 synthase; [2]
  inhibition at 1 µM: 51%

## CCCc1c(OCCCC(=O)NCCc2cccnc2)ccc(C(C)=O)c1O [Example 13, 4-(4-Acetyl-3-hydroxy-2-propylphenoxy)-N-[2-(3-pyridinyl)ethyl]butanamide]
PAF; Table I
  pIC50: 6.40
TXA2 synthase; [2]
  inhibition at 1 µM: 8%

## CCCc1c(OCCC(C)C(=O)NCCCCc2cccnc2)ccc(C(C)=O)c1O (stereo not drawn) [Example 22, 4-(4-Acetyl-3-hydroxy-2-propylphenoxy)-2-methyl-N-[4-(3-pyridinyl)butyl]butanamide]
PAF; Table III
  pIC50: 6.00
TXA2 synthase; [3]
  inhibition at 1 µM: 70%

## CCCc1c(OCC(C)CC(=O)NCCCCc2cccnc2)ccc(C(C)=O)c1O (stereo not drawn) [Example 23, 4-(4-Acetyl-3-hydroxy-2-propylphenoxy)-3-methyl-N-[4-(3-pyridinyl)butyl]butanamide]
PAF; Table III
  pIC50: 6.70
TXA2 synthase; [3]
  inhibition at 1 µM: 77%

## CCCc1c(OCCC(C)(C)C(=O)NCCCCc2cccnc2)ccc(C(C)=O)c1O [Example 24, 4-(4-Acetyl-3-hydroxy-2-propylphenoxy)-2,2-dimethyl-N-[4-(3-pyridinyl)butyl]butanamide]
PAF; Table III
  pIC50: 6.00
TXA2 synthase; [3]
  inhibition at 1 µM: 55%

## CCCc1c(OCC(C)CC(=O)NC(C)CCCc2cccnc2)ccc(C(C)=O)c1O (stereo not drawn) [Example 26, 4-(4-Acetyl-3-hydroxy-2-propylphenoxy)-3-methyl-N-[1-methyl-4-(3-pyridinyl)butyl]-butanamide]
PAF; Table III
  pIC50: 6.00
TXA2 synthase; [3]
  inhibition at 1 µM: 78%

## CCCc1c(OCCCC(=O)NC(C)CCCc2cccnc2)ccc(C(C)=O)c1O (stereo not drawn) [Example 27, 4-(4-Acetyl-3-hydroxy-2-propylphenoxy)-N-[1-methyl-4-(3-pyridinyl)butyl]butanamide]
PAF; Table III
  pIC50: 6.52
TXA2 synthase; [3]
  inhibition at 1 µM: 77%

## CCCc1c(OCCCNC(=O)NCCCCc2cccnc2)ccc(C(C)=O)c1O [Example 30, N-[3-(4-acetyl-3-hydroxy-2-propylphenoxy)-propyl]-N'-[4-(3-pyridinyl)butyl]urea]
PAF; Table III
  pIC50: 6.15
TXA2 synthase; [3]
  inhibition at 1 µM: 93%

## CCCc1c(OCCCC#CC(=O)NCCCCc2cccnc2)ccc(C(C)=O)c1O [drawing 36]
PAF; Table II
  pIC50: 6.30
TXA2 synthase; [1]
  inhibition at 1 µM: 88%

## CCCc1c(OCCCCCC(=O)NCCCCc2cccnc2)ccc(C(C)=O)c1O [drawing 39]
LTD4
  Arrhy's (R/T): 0/5
  decrease in blood pressure (.dwnarw.XABP): -16 ± 6 Δmm Hg
  increase in blood pressure (.uparw.XABP): 6 ± 3 Δmm Hg

## CCCc1c(OCCCC(=O)NCCCCc2cccnc2)ccc(C(C)=O)c1O [drawing 40]
LTD4
  Arrhy's (R/T): 0/3
  decrease in blood pressure (.dwnarw.XABP): -26 ± 8 Δmm Hg
  increase in blood pressure (.uparw.XABP): 6 ± 6 Δmm Hg

## CCCc1c(OCCCCCC(=O)NCCCCc2cncnc2)ccc(C(C)=O)c1O [drawing 41]
LTD4
  Arrhy's (R/T): 1/3
  decrease in blood pressure (.dwnarw.XABP): -44 ± 5 Δmm Hg
  increase in blood pressure (.uparw.XABP): 32 ± 2 Δmm Hg

## CCCc1c(OCC#CCCCC(=O)NCCCCc2cccnc2)ccc(C(C)=O)c1O [drawing 42]
LTD4
  Arrhy's (R/T): 1/3
  decrease in blood pressure (.dwnarw.XABP): -44.5 Δmm Hg
  increase in blood pressure (.uparw.XABP): 18 ± 4 Δmm Hg
